The target in this assay is SOS1/KRAS WT (Homo sapiens (Human), UniProt Q07889). Nature of the assay: SOS1/KRAS WT HTRF binding assay (FRET-based protein-protein interaction). The conditions noted are these: inhibition of His6-SOS1 (aa564-1049, 40 nM) binding to GST-KRAS-WT (aa1-188, 40 nM); at least two independent replicates; read-out: SOS1/KRAS WT HTRF Binding assay pIC50 (converted). In short, it runs like this:
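GST-KRAS WT (aa1-188, 40 nM) and His6-SOS1 exchange domain (aa564-1049, 40 nM) were incubated 60 min at room temperature with compound dose response in HEPES pH7.3 buffer with 10 mM EDTA and 100 mM KF. Anti-GST-Eu(K)/anti-6His-XL665 HTRF was read after 4 hr, and IC50 came from a four-parameter fit (≥2 replicates).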
(In general: In TR-FRET formats the signal depends on donor and acceptor labels being close together.)
Sequence of SOS1/KRAS WT (Q07889 564-1049): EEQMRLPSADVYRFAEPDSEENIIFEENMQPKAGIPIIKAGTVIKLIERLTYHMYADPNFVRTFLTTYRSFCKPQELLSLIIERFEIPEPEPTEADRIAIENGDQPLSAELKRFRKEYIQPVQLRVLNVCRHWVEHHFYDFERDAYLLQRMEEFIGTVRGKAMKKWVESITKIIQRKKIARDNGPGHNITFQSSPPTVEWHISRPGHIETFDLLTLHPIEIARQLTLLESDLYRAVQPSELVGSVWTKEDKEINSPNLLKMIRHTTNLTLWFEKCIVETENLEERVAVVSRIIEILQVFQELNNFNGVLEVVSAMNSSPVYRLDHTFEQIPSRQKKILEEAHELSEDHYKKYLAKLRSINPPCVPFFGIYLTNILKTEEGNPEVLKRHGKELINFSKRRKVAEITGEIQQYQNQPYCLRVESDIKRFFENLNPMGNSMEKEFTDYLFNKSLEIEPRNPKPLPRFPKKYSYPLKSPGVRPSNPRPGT
Turning to `Cc1nnc(N[C@H](C)c2cccc(C(F)(F)C(C)(C)O)c2F)c2cc3c(cc12)C1(CCOCC1)C(=O)N3C1CC1` [Compound 121, 1-cyclopropyl-5-methyl-8-[[(1R)-1-[3-(1,1-difluoro-2-hydroxy-2-methyl-propyl)-2-fluoro-phenyl]ethyl]amino]spiro[pyrrolo [2,3-g]phthalazine-3,4′-tetrahydropyran]-2-one], the IC50 is 6.31 nM.
For `COC1(C)C(=O)N(C2CC2)c2cc3c(N[C@H](C)c4cccc(C(F)(F)CO)c4F)nnc(C)c3cc21` (stereo partly drawn) [Compound 122, 1-cyclopropyl-3-methoxy-3,5-dimethyl-8-[[(1R)-1-[3-(1,1-difluoro-2-hydroxy-ethyl)-2-fluoro-phenyl]ethyl]amino]pyrrolo[2,3-g]phthalazin-2-one], the IC50 was 5.75 nM.
As to `Cc1nnc(N[C@H](C)c2cccc(C(F)(F)CO)c2F)c2cc3c(cc12)C(C)(C)C(=O)N3C1CC1` [Compound 123, 1-cyclopropyl-3,3,5-trimethyl-8-[[(1R)-1-[3-(1,1-difluoro-2-hydroxy-ethyl)-2-fluoro-phenyl]ethyl]amino]pyrrolo[2,3-g]phthalazin-2-one], the IC50 is 8.71 nM.
To `Cc1c([C@@H](C)Nc2nnc(C)c3cc4c(cc23)N(C(C)C)C(=O)C4(C)C)cccc1C(F)(F)C(C)(C)O` [Compound 124, 1-isopropyl-3,3,5-trimethyl-8-[[(1R)-1-[3-(1,1-difluoro-2-hydroxy-2-methyl-propyl)-2-methyl-phenyl]ethyl]amino]pyrrolo[2,3-g]phthalazin-2-one] belongs 6.17 nM; to `Cc1nnc(N[C@H](C)c2cccc(C(F)(F)C(C)(C)O)c2)c2cc3c(cc12)N(C)C(=O)C31CCOCC1` [Compound 125, 1,8-dimethyl-5-[[(1R)-1-[3-(1,1-difluoro-2-hydroxy-2-methyl-propyl)phenyl]ethyl]amino]spiro [pyrrolo[3,2-g]phthalazine-3,4′-tetrahydropyran]-2-one], 6.61 nM; to `CCOC1(C)C(=O)N(C)c2cc3c(N[C@H](C)c4cccc(C(F)(F)C(C)(C)O)c4C)nnc(C)c3cc21` (stereo partly drawn) [Compound 126, 3-ethoxy-1,3,5-trimethyl-8-[[(1R)-1-[3-(1,1-difluoro-2-hydroxy-2-methyl-propyl)-2-methyl-phenyl]ethyl]amino]pyrrolo[2,3-g]phthalazin-2-one], 9.12 nM.
With `Cc1c([C@@H](C)Nc2nnc(C)c3cc4c(cc23)N(C2CC2)C(=O)C4(C)C)cccc1C(F)(F)C(C)(C)O` [Compound 127, 1-cyclopropyl-3,3,5-trimethyl-8-[[(1R)-1-[3-(1,1-difluoro-2-hydroxy-2-methyl-propyl)-2-methyl-phenyl]ethyl]amino]pyrrolo[2,3-g]phthalazin-2-one], the IC50 was 12.9 nM.
Turning to `Cc1nnc(N[C@H](C)c2cccc(C(F)(F)CO)c2)c2cc3c(cc12)N(C)C(=O)C31CCOCC1` [Compound 128, 1,8-dimethyl-5-[[(1R)-1-[3-(1,1-difluoro-2-hydroxy-ethyl)phenyl]ethyl]amino]spiro [pyrrolo[3,2-g]phthalazine-3,4′-tetrahydropyran]-2-one], the IC50 was 6.31 nM.
Under `Cc1c([C@@H](C)Nc2nnc(C)c3cc4c(cc23)C2(CCOCC2)C(=O)N4C)cccc1C(F)(F)CO` [Compound 129, 1,8-dimethyl-5-[[(1R)-1-[3-(1,1-difluoro-2-hydroxy-ethyl)-2-methyl-phenyl]ethyl]amino]spiro[pyrrolo [3,2-g]phthalazine-3,4′-tetrahydropyran]-2-one] stands 6.61 nM; under `Cc1c([C@@H](C)Nc2nnc(C)c3cc4c(cc23)C2(CCOCC2)C(=O)N4C)cccc1C(F)(F)C(C)(C)O` [Compound 131, 1,8-dimethyl-5-[[(1R)-1-[3-(1,1-difluoro-2-hydroxy-2-methyl-propyl)-2-methyl-phenyl]ethyl]amino]spiro[pyrrolo [3,2-g]phthalazine-3,4′-tetrahydropyran]-2-one], 7.94 nM; under `CCOC1(C)C(=O)N(C)c2cc3c(N[C@H](C)c4cccc(C(F)(F)C(C)(C)O)c4F)nnc(C)c3cc21` (stereo partly drawn) [Compound 132, 3-ethoxy-1,3,5-trimethyl-8-[[(1R)-1-[3-(1,1-difluoro-2-hydroxy-2-methyl-propyl)-2-fluoro-phenyl]ethyl]amino]pyrrolo[2,3-g]phthalazin-2-one], 7.94 nM.
For `CCOC1(C)C(=O)N(C)c2cc3c(N[C@H](C)c4cccc(C(F)(F)CO)c4)nnc(C)c3cc21` (stereo partly drawn) [Compound 133, 3-ethoxy-1,3,5-trimethyl-8-[[(1R)-1-[3-(1,1-difluoro-2-hydroxy-ethyl)phenyl]ethyl]amino]pyrrolo [2,3-g]phthalazin-2-one], the IC50 is 8.51 nM.
In the case of `CCOC1(C)C(=O)N(C)c2cc3c(N[C@H](C)c4cccc(C(F)(F)CO)c4C)nnc(C)c3cc21` (stereo partly drawn) [Compound 134, 3-ethoxy-1,3,5-trimethyl-8-[[(1R)-1-[3-(1,1-difluoro-2-hydroxy-ethyl)-2-methyl-phenyl]ethyl]amino]pyrrolo[2,3-g]phthalazin-2-one], the IC50 is 6.17 nM.
Regarding `CCOC1(C)C(=O)N(C)c2cc3c(N[C@H](C)c4cccc(C(F)(F)CO)c4F)nnc(C)c3cc21` (stereo partly drawn) [Compound 135, 3-ethoxy-1,3,5-trimethyl-8-[[(1R)-1-[3-(1,1-difluoro-2-hydroxy-ethyl)-2-fluoro-phenyl]ethyl]amino]pyrrolo[2,3-g]phthalazin-2-one], the IC50 was 10 nM.
In the case of `COCC1(C)C(=O)N(C2CC2)c2cc3c(N[C@H](C)c4cccc(C(F)(F)C(C)(C)O)c4F)nnc(C)c3cc21` (stereo partly drawn) [Compound 136, 1-cyclopropyl-8-[[(1R)-1-[3-(1,1-difluoro-2-hydroxy-2-methyl-propyl)-2-fluoro-phenyl]ethyl]amino]-3-(methoxymethyl)-3,5-dimethyl-pyrrolo[3,2-g]phthalazin-2-one], the IC50 was 14.1 nM.
In the case of `COCC1(C)C(=O)N(C2CC2)c2cc3c(N[C@H](C)c4cccc(C(F)(F)C(C)(C)O)c4C)nnc(C)c3cc21` (stereo partly drawn) [Compound 137, 1-cyclopropyl-8-[[(1R)-1-[3-(1,1-difluoro-2-hydroxy-2-methyl-propyl)-2-methyl-phenyl]ethyl]amino]-3-(methoxymethyl)-3,5-dimethyl-pyrrolo[3,2-g]phthalazin-2-one], the IC50 is 15.8 nM.
With `COCC1(C)C(=O)N(C2CC2)c2cc3c(N[C@H](C)c4cccc(C(F)(F)CO)c4F)nnc(C)c3cc21` (stereo partly drawn) [Compound 138, 1-cyclopropyl-8-[[(1R)-1-[3-(1,1-difluoro-2-hydroxy-ethyl)-2-fluoro-phenyl]ethyl]amino]-3-(methoxymethyl)-3,5-dimethyl-pyrrolo[3,2-g]phthalazin-2-one], the IC50 is 6.61 nM.
To `COC1(C)C(=O)N(C2CC2)c2cc3c(N[C@H](C)c4cccc(C(F)(F)C(C)(C)O)c4F)nnc(C)c3cc21` (stereo partly drawn) [Compound 139, 1-cyclopropyl-3-methoxy-3,5-dimethyl-8-[[(1R)-1-[3-(1,1-difluoro-2-hydroxy-2-methyl-propyl)-2-fluoro-phenyl]ethyl]amino]pyrrolo[2,3-g]phthalazin-2-one] belongs 11 nM; to `COC1(C)C(=O)N(C2CC2)c2cc3c(N[C@H](C)c4cccc(C(F)(F)C(C)(C)O)c4C)nnc(C)c3cc21` (stereo partly drawn) [Compound 140, 1-cyclopropyl-3-methoxy-3,5-dimethyl-8-[[(1R)-1-[3-(1,1-difluoro-2-hydroxy-2-methyl-propyl)-2-methyl-phenyl]ethyl]amino]pyrrolo[2,3-g]phthalazin-2-one], 15.5 nM; to `COC1(C)C(=O)N(C)c2cc3c(N[C@H](C)c4cc(F)cc(C(F)(F)CO)c4F)nnc(C)c3cc21` (stereo partly drawn) [Compound 141, 3-methoxy-1,3,5-trimethyl-8-[[(1R)-1-[3-(1,1-difluoro-2-hydroxy-ethyl)-2,5-difluoro-phenyl]ethyl]amino]pyrrolo[2,3-g]phthalazin-2-one], 20 nM.
For `COC1(C)C(=O)N(C2CC2)c2cc3c(N[C@H](C)c4cccc(C(F)(F)CO)c4)nnc(C)c3cc21` (stereo partly drawn) [Compound 142, 1-cyclopropyl-3-methoxy-3,5-dimethyl-8-[[(1R)-1-[3-(1,1-difluoro-2-hydroxy-ethyl)phenyl]ethyl]amino]pyrrolo [2,3-g]phthalazin-2-one], the IC50 was 12.9 nM.
To `COC1(C)C(=O)N(C2CC2)c2cc3c(N[C@H](C)c4cccc(C(F)(F)CO)c4C)nnc(C)c3cc21` (stereo partly drawn) [Compound 143, 1-cyclopropyl-3-methoxy-3,5-dimethyl-8-[[(1R)-1-[3-(1,1-difluoro-2-hydroxy-ethyl)-2-methyl-phenyl]ethyl]amino]pyrrolo[2,3-g]phthalazin-2-one] belongs 11 nM; to `Cc1nnc(N[C@H](C)c2cccc(C(F)(F)F)c2)c2cc3c(cc12)n(C)c(=O)n3C1CCOC1` (stereo partly drawn) [Compound 144, 1,8-dimethyl-3-tetrahydrofuran-3-yl-5-[[(1R)-1-[3-(trifluoromethyl)phenyl]ethyl]amino]imidazo[4,5-g]phthalazin-2-one], 11.7 nM.
To `Cc1nnc(N[C@H](C)c2cccc(C(F)(F)F)c2)c2cc3[nH]c(=O)n(C)c3cc12` [Compound 145, 1,8-dimethyl-5-[[(1R)-1-[3-(trifluoromethyl)phenyl]ethyl]amino]-3H-imidazo[4,5-g]phthalazin-2-one] belongs 66.1 nM.
As to `Cc1nnc(N[C@H](C)c2cccc(C(F)F)c2F)c2cc3c(cc12)n(C)c(=O)n3[C@H]1CCOC1` [Compound 146, 5-[[(1R)-1-[3-(difluoromethyl)-2-fluoro-phenyl]ethyl]amino]-1,8-dimethyl-3-[(3S)-tetrahydrofuran-3-yl]imidazo[4,5-g]phthalazin-2-one], the IC50 was 12.3 nM.
For `Cc1nnc(N[C@H](C)c2cccc(C(F)F)c2F)c2cc3c(cc12)n(C)c(=O)n3C1COC1` [Compound 147, 5-[[(1R)-1-[3-(difluoromethyl)-2-fluoro-phenyl]ethyl]amino]-1,8-dimethyl-3-(oxetan-3-yl)imidazo[4,5-g]phthalazin-2-one], the IC50 is 12.3 nM.

Values taken from patent US20250197407A1 (Jazz Pharmaceuticals Ireland Limited, priority 2022, published 2025).
